The text below walks through data of article PMC2438350, “Comparison of four different colorimetric and fluorometric cytotoxicity assays in a zebrafish liver cell line” (BMC Pharmacology, 2008).

A word on the EC50: it is the concentration that produces a half-maximal response.

Common to all, as to type: cell-based, zebrafish (Danio rerio)
The subject of experiment [1] is ZFL cells. Description: MTT assay, cytotoxicity. The settings on record: for EC10 (10% loss of cell viability): 24 h exposure, mean ± SD of three experiments; for EC50: read-out: EC50 (50% loss of cell viability), 24 h exposure, mean ± SD of three experiments. Here is the method:
(§1) Each compound was dissolved in dimethyl sulfoxide (DMSO) and diluted in a way that all stock solutions were 200 times concentrated compared to the final test concentrations. Concentration ranges were 30 pM-1.97 μM for BaP, 5 nM-5 μM for Flus, 5 nM-11 μM for Tam, and 0.2–43 μM for 4-OHT, which is in the range of in vivo studies with waterborne exposure of zebrafish for BaP, Tam, and 4-OHT [20-22, 29]. For Flusilazole, no studies on fish are available.
(§2) For finding the optimal biological test conditions, in the beginning different cell densities were applied using two-fold dilution series in the range of 780–100,000 cells/well and cell viability tests were performed after 24 h. […] Thus, cells were plated in 96 well flat-bottom plates at an initial cell density of 25,000 cells/well in 200 μL of medium and allowed to settle for 24 h. In parallel, wells containing only medium without cells were prepared and used later on for background correction. After the pre-incubation period, for each test compound and each concentration, 1 μL of the DMSO stock solutions was added so that the final DMSO content was 0.5%. All tests were performed at least three times and each time in triplicate.
The MTT assay was performed using the cell proliferation kit I MTT (Roche) according to the manufacturer's protocol. In brief, after 24 h of incubation with the test compounds, 100 μL of medium were removed from each well. Then, 10 μL of the MTT solution were added and plates incubated for 4 h at 28°C. Since the manufacturer recommends incubation at 37°C and ZFL cells have to be incubated at 28°C, we tested different incubation times with MTT (2, 4, and 6 h) to establish optimized conditions. […] After the incubation with MTT, the solubilization solution was added and plates incubated over night. The next day, absorption of the produced formazan was measured at 570 nm with 680 nm as reference wavelength using a microplate reader (Infinite 200, Tecan). For data evaluation, background and reference wavelength corrected absorption values were averaged for the triplicates and expressed as "% cytotoxicity" referring to the untreated control containing only the solvent DMSO.
(§3) For each single assay, data were evaluated separately for three independent experiments. Dose-response curves were fitted using a nonlinear-regression sigmoidal dose-response curve model provided in the GraphPad Prism software (GraphPad software, Inc., San Diego, USA). EC10 and EC50 values were derived from these fitted curves for the single experiments. Final EC-values (Table 1) were calculated as average of three independent experiments with the standard deviation of the mean indicating the variation. Data from the different assays were statistically compared using One way ANOVA analysis with Tukey's test as post-ANOVA analysis (p < 0.05).
A general note: Tetrazolium dyes change colour on reduction, which living cells bring about.

Experiment [2] relates to ZFL cells. Description: alamarBlue (AB) assay, cytotoxicity. The note with it: for EC10 (10% loss of cell viability): 24 h exposure, mean ± SD of three experiments; for EC50: read-out: EC50 (50% loss of cell viability), 24 h exposure, mean ± SD of three experiments. Here is the method:
as §1, §2
(§4) The fluorogenic indicator dyes alamarBlue® (AB) (BioSource, Invitrogen) and CFDA-AM (5-carboxyfluorescein diacetate acetoxymethyl ester; Molecular Probes, Invitrogen) were used in combination on a third set of cells, since it was shown before that their fluorescent products can be detected at different non-interfering wavelengths. AB was obtained as ready-to-use stock solution, which had to be diluted 200 times to obtain the working solution. CFDA-AM powder was dissolved in DMSO to a stock solution of 4 mM, which was diluted 1000 times to reach the 4 μM working solution. […] For this purpose, cells were exposed to the dyes dissolved in culture medium without FBS or in Earle's-G medium. […] The AB/CFDA-AM assay was then performed according to [10]. In brief, after 24 h of incubation with the test compounds, the medium was aspirated off completely and 100 μL/well of the alamarBlue/CFDA-AM working solution were added. After 30 min of incubation, fluorescence was measured at 530 nm excitation/590 nm emission for AB and 485 nm/535 nm for CFDA-AM, respectively, using a fluorescence plate reader (Infinite 200, Tecan). For data evaluation, average values of triplicates were calculated after background correction and all average values for the treatments referred to the DMSO control, in order to express data as "% cytotoxicity".
as §3

For experiment [3], the system named is ZFL cells. Description: LDH assay (released lactate dehydrogenase activity), cytotoxicity. The settings on record: for EC10 (10% loss of cell viability): 24 h exposure, 1% FBS, mean ± SD of three experiments; for EC50: read-out: EC50 (50% loss of cell viability), 24 h exposure, 1% FBS, mean ± SD of three experiments. Here is the method: as §1, §2
A second set of cells was exposed to the test compounds for the LDH assay, which was performed using the Cytotoxicity Detection Kit LDH (Roche). For this assay, a positive control, leading to 100% cytotoxicity by lysing the cells completely, was included in the assay. The positive control was 2% Triton X-100 solution in the assay medium, as proposed by the manufacturer. After pre-incubation of the cells, before addition of the test compounds, the growth medium was exchanged from medium containing 5% FBS to medium containing only 1% FBS. Then, test compounds in DMSO were dosed and plates incubated as for the other assays for 24 h. For testing the released LDH activity, 100 μL of culture medium were transferred to a new 96 well plate. 100 μL of the reaction solution from the kit, containing the detection dye and the catalyst were then added and absorption was measured after 30 min at 490 nm with 655 nm as reference wavelength in an ELISA reader (Model 680, Biorad). As for the other assays, background values from wells without cells were subtracted and average values for the triplicates calculated. Cytotoxicity was then calculated according to the following equation: Cytotoxicity (%) = (experimental value - DMSO control)/(positive control - DMSO control) × 100.
as §3

Experiment [4] deals with ZFL cells. Description: CFDA-AM assay, cytotoxicity. The note with it: for EC10 (10% loss of cell viability): 24 h exposure, mean ± SD of three experiments; for EC50: read-out: EC50 (50% loss of cell viability), 24 h exposure, mean ± SD of three experiments. Here is the method: as §1, §2, §4, §3

Take `CC/C(=C(\c1ccc(O)cc1)c1ccc(OCCN(C)C)cc1)c1ccccc1.Cl` [4-OH-Tamoxifen, trans-4-Hydroxy-Tamoxifen]: the “EC10 (10% loss of cell viability)” value was found to be 1490 ± 820 nM in the experiment on ZFL cells [1], 790 ± 400 nM with ZFL cells [2], 730 ± 550 nM in the experiment on ZFL cells [3] and 1080 ± 620 nM in the experiment on ZFL cells [4]. In addition, the half-maximal effective concentration (EC50) came out at 1780 ± 400 nM in the experiment on ZFL cells [1], 1170 ± 240 nM with ZFL cells [2], 1620 ± 10 nM with ZFL cells [3] and 1730 ± 670 nM in the experiment on ZFL cells [4].
For `C[Si](Cn1cncn1)(c1ccc(F)cc1)c1ccc(F)cc1` [Flusilazole], the “EC10 (10% loss of cell viability)” value in the experiment on ZFL cells [1] stood at 11290 ± 5880 nM; in the experiment on ZFL cells [2], 16130 ± 11440 nM; with ZFL cells [3] it was 2280 ± 3120 nM; with ZFL cells [4], 6490 ± 1080 nM. The EC50 in the experiment with ZFL cells [1] (Danio rerio) was determined as 18400 ± 14100 nM; in the experiment with ZFL cells [2] (Danio rerio) it was 26400 ± 7300 nM; in the experiment on ZFL cells [3] (Danio rerio), 17400 ± 14500 nM; in the experiment on ZFL cells [4] (Danio rerio), 16700 ± 4760 nM.
Regarding `CC/C(=C(\c1ccccc1)c1ccc(OCCN(C)C)cc1)c1ccccc1` [Tamoxifen], the “EC10 (10% loss of cell viability)” value was 1390 ± 770 nM in the experiment on ZFL cells [1], 1370 ± 330 nM with ZFL cells [2], 610 ± 670 nM with ZFL cells [3] and 2520 ± 2140 nM with ZFL cells [4].
